Reference: patent US7300946B2, “N-(substituted arylmethyl)-4-(disubstituted methyl) piperidines and pyridines” (Bayer CropScience AG, priority 2002, dated 2007)

System: tobacco budworm (Heliothis virescens [Fabricius])
Assay: surface-treated diet test against the tobacco budworm
Type: in vivo
Settings: tobacco budworm second instar larvae, 0.25 millimoles of candidate insecticide on the surface of the diet, five-day exposure; for Percent Mortality: compared to total number of insects infested; for Percent Growth Inhibition: inhibition of insect weight relative to untreated controls
Method in brief: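 Wheat germ artificial diet surface-treated with 40 µL of 50 mM DMSO stock diluted 1:7 in 1:1 water/acetone (0.25 millimolar on diet), or sub-multiples for rate tests. One second-instar larva per well, 25° C, 60% RH, 5 days; percent weight inhibition vs DMSO controls and percent mortality.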

Structure (SMILES): O=C(Nc1ccc(Cl)cc1)OC(c1ccc(C(F)(F)F)cc1)C1CCN(Cc2ccc(Oc3ncccn3)cc2)CC1 (stereo not drawn) [Compound 729]
- Percent Mortality: 100%
- Percent Growth Inhibition: 100%

Structure (SMILES): O=C(Nc1ccc(F)cc1F)OC(c1ccc(C(F)(F)F)cc1)C1CCN(Cc2ccc(Oc3ncccn3)cc2)CC1 (stereo not drawn) [Compound 730]
- Percent Mortality: 100%
- Percent Growth Inhibition: 100%

Structure (SMILES): O=C(Nc1cc(F)cc(F)c1)OC(c1ccc(C(F)(F)F)cc1)C1CCN(Cc2ccc(Oc3ncccn3)cc2)CC1 (stereo not drawn) [Compound 731]
- Percent Mortality: 100%
- Percent Growth Inhibition: 100%

Structure (SMILES): O=C(Nc1ccc(F)c(F)c1)OC(c1ccc(C(F)(F)F)cc1)C1CCN(Cc2ccc(Oc3ncccn3)cc2)CC1 (stereo not drawn) [Compound 732]
- Percent Mortality: 100%
- Percent Growth Inhibition: 100%

Structure (SMILES): O=C(Nc1ccc(Cl)cc1)OC(c1ccc(OC(F)(F)F)cc1)C1CCN(Cc2ccc(Oc3ncccn3)cc2)CC1 (stereo not drawn) [Compound 733]
- Percent Mortality: 100%
- Percent Growth Inhibition: 100%

Structure (SMILES): O=C(Nc1cccc(F)c1)OC(c1ccc(OC(F)(F)F)cc1)C1CCN(Cc2ccc(Oc3ncccn3)cc2)CC1 (stereo not drawn) [Compound 734]
- Percent Mortality: 100%
- Percent Growth Inhibition: 100%

Structure (SMILES): O=C(Nc1cc(F)cc(F)c1)OC(c1ccc(OC(F)(F)F)cc1)C1CCN(Cc2ccc(Oc3ncccn3)cc2)CC1 (stereo not drawn) [Compound 735]
- Percent Mortality: 100%
- Percent Growth Inhibition: 100%

Structure (SMILES): O=C(Nc1cc(F)cc(F)c1)OC(c1ccc(C(F)(F)F)cc1)C1CCN(Cc2ccc(Oc3cccnn3)cc2)CC1 (stereo not drawn) [Compound 736]
- Percent Mortality: 100%
- Percent Growth Inhibition: 100%

Structure (SMILES): O=C(Nc1ccc(Cl)cc1)OC(c1ccc(C(F)(F)F)cc1)C1CCN(Cc2ccc(Oc3ccc(Cl)nn3)cc2)CC1 (stereo not drawn) [Compound 737]
- Percent Mortality: 100%
- Percent Growth Inhibition: 100%

Structure (SMILES): O=C(Nc1cc(F)cc(F)c1)OC(c1ccc(C(F)(F)F)cc1)C1CCN(Cc2ccc(Oc3ccc(Cl)nn3)cc2)CC1 (stereo not drawn) [Compound 738]
- Percent Mortality: 100%
- Percent Growth Inhibition: 100%

Structure (SMILES): O=C(Nc1cc(F)cc(F)c1)OC(c1ccc(C(F)(F)F)cc1)C1CCN(Cc2ccc(Oc3ncncn3)cc2)CC1 (stereo not drawn) [Compound 739]
- Percent Mortality: 0%
- Percent Growth Inhibition: 100%

Structure (SMILES): COc1nc(OC)nc(Oc2ccc(CN3CCC(C(OC(=O)Nc4cc(F)cc(F)c4)c4ccc(C(F)(F)F)cc4)CC3)cc2)n1 (stereo not drawn) [Compound 740]
- Percent Mortality: 100%
- Percent Growth Inhibition: 100%

Structure (SMILES): CCCOc1ccc(C[N+]2([O-])CCC(C(OC(=O)Nc3cc(F)cc(F)c3)c3ccc(C(F)(F)F)cc3)CC2)cc1 (stereo not drawn) [Compound 741]
- Percent Mortality: 100%
- Percent Growth Inhibition: 100%

Structure (SMILES): CCON=Cc1ccc(C[N+]2([O-])CCC(C(OC(=O)Nc3cccc(F)c3)c3ccc(C(F)(F)F)cc3)CC2)cc1 (stereo not drawn) [Compound 742]
- Percent Mortality: 100%
- Percent Growth Inhibition: 100%

Structure (SMILES): CCON=Cc1ccc(C[N+]2([O-])CCC(C(OC(=O)Nc3cc(F)cc(F)c3)c3ccc(C(F)(F)F)cc3)CC2)cc1 (stereo not drawn) [Compound 743]
- Percent Mortality: 100%
- Percent Growth Inhibition: 100%

Structure (SMILES): C#CCON=Cc1ccc(C[N+]2([O-])CCC(C(OC(=O)Nc3cc(F)cc(F)c3)c3ccc(C(F)(F)F)cc3)CC2)cc1 (stereo not drawn) [Compound 744]
- Percent Mortality: 100%
- Percent Growth Inhibition: 100%

Structure (SMILES): CC(C)OC(=O)c1ccc(C[N+]2([O-])CCC(C(OC(=O)Nc3ccc(Cl)cc3)c3ccc(C(F)(F)F)cc3)CC2)cc1 (stereo not drawn) [Compound 745]
- Percent Mortality: 100%
- Percent Growth Inhibition: 100%

Structure (SMILES): CC(C)OC(=O)Nc1ccc(C[N+]2([O-])CCC(C(OC(=O)Nc3cc(F)cc(F)c3)c3ccc(C(F)(F)F)cc3)CC2)cc1 (stereo not drawn) [Compound 746]
- Percent Mortality: 100%
- Percent Growth Inhibition: 100%

Structure (SMILES): O=C(Nc1ccc(Cl)cc1)OC(c1ccc(C(F)(F)F)cc1)C1CC[N+]([O-])(Cc2ccc(-c3ccccc3)cc2)CC1 (stereo not drawn) [Compound 747]
- Percent Mortality: 100%
- Percent Growth Inhibition: 100%

Structure (SMILES): O=C(Nc1cc(F)cc(F)c1)OC(c1ccc(C(F)(F)F)cc1)C1CC[N+]([O-])(Cc2ccc(-c3ccccc3)cc2)CC1 (stereo not drawn) [Compound 748]
- Percent Mortality: 100%
- Percent Growth Inhibition: 100%

Structure (SMILES): O=C(Nc1cc(F)cc(F)c1)OC(c1ccc(C(F)(F)F)cc1)C1CC[N+]([O-])(Cc2ccc(Oc3ccccc3)cc2)CC1 (stereo not drawn) [Compound 749]
- Percent Mortality: 100%
- Percent Growth Inhibition: 100%

Structure (SMILES): O=C(Nc1cc(F)cc(F)c1)OC(c1ccc(C(F)(F)F)cc1)C1CC[N+]([O-])(Cc2ccc(Oc3ccccc3F)cc2)CC1 (stereo not drawn) [Compound 750]
- Percent Mortality: 100%
- Percent Growth Inhibition: 100%

Structure (SMILES): O=C(Nc1cc(F)cc(F)c1)OC(c1ccc(C(F)(F)F)cc1)C1CC[N+]([O-])(Cc2ccc(Oc3c(F)cccc3F)cc2)CC1 (stereo not drawn) [Compound 751]
- Percent Mortality: 100%
- Percent Growth Inhibition: 100%

Structure (SMILES): O=C(Nc1cc(F)cc(F)c1)OC(c1ccc(F)cc1)C1CC[N+]([O-])(Cc2ccc(Oc3ccccn3)cc2)CC1 (stereo not drawn) [Compound 752]
- Percent Mortality: 100%
- Percent Growth Inhibition: 100%

Structure (SMILES): O=C(Nc1ccc(F)cc1F)OC(c1ccc(C(F)(F)F)cc1)C1CC[N+]([O-])(Cc2ccc(Oc3ccccn3)cc2)CC1 (stereo not drawn) [Compound 753]
- Percent Mortality: 100%
- Percent Growth Inhibition: 100%

Structure (SMILES): O=C(Nc1ccc(F)c(F)c1)OC(c1ccc(C(F)(F)F)cc1)C1CC[N+]([O-])(Cc2ccc(Oc3ccccn3)cc2)CC1 (stereo not drawn) [Compound 754]
- Percent Mortality: 100%
- Percent Growth Inhibition: 100%

Structure (SMILES): O=C(Nc1cc(F)cc(F)c1)OC(c1ccc(C(F)(F)F)cc1)C1CC[N+]([O-])(Cc2ccc(Oc3ncccc3Cl)cc2)CC1 (stereo not drawn) [Compound 755]
- Percent Mortality: 100%
- Percent Growth Inhibition: 100%

Structure (SMILES): O=C(Nc1cc(F)cc(F)c1)OC(c1ccc(C(F)(F)F)cc1)C1CC[N+]([O-])(Cc2ccc(Oc3ccc(Cl)cn3)cc2)CC1 (stereo not drawn) [Compound 756]
- Percent Mortality: 100%
- Percent Growth Inhibition: 100%

Structure (SMILES): O=C(Nc1cc(F)cc(F)c1)OC(c1ccc(C(F)(F)F)cc1)C1CC[N+]([O-])(Cc2ccc(Oc3cccc(Cl)n3)cc2)CC1 (stereo not drawn) [Compound 757]
- Percent Mortality: 100%
- Percent Growth Inhibition: 100%

Structure (SMILES): O=C(Nc1cc(F)cc(F)c1)OC(c1ccc(C(F)(F)F)cc1)C1CC[N+]([O-])(Cc2ccc(Oc3ncc(Cl)cc3Cl)cc2)CC1 (stereo not drawn) [Compound 758]
- Percent Mortality: 100%
- Percent Growth Inhibition: 100%

Structure (SMILES): O=C(Nc1cc(F)cc(F)c1)OC(c1ccc(C(F)(F)F)cc1)C1CC[N+]([O-])(Cc2ccc(Oc3ncccc3C(F)(F)F)cc2)CC1 (stereo not drawn) [Compound 759]
- Percent Mortality: 100%
- Percent Growth Inhibition: 100%

Structure (SMILES): O=C(Nc1cc(F)cc(F)c1)OC(c1ccc(C(F)(F)F)cc1)C1CC[N+]([O-])(Cc2ccc(Oc3cc(C(F)(F)F)ccn3)cc2)CC1 (stereo not drawn) [Compound 760]
- Percent Mortality: 100%
- Percent Growth Inhibition: 100%

Structure (SMILES): COC(=O)N(c1ccc(C[N+]2([O-])CCC(C(OC(=O)Nc3cc(F)cc(F)c3)c3ccc(C(F)(F)F)cc3)CC2)cc1)c1ccccn1 (stereo not drawn) [Compound 761]
- Percent Mortality: 100%
- Percent Growth Inhibition: 100%

Structure (SMILES): O=C(Nc1ccc(Cl)cc1)OC(c1ccc(C(F)(F)F)cc1)C1CC[N+]([O-])(Cc2ccc(Oc3ncccn3)cc2)CC1 (stereo not drawn) [Compound 762]
- Percent Mortality: 100%
- Percent Growth Inhibition: 100%

Structure (SMILES): O=C(Nc1ccc(F)cc1F)OC(c1ccc(C(F)(F)F)cc1)C1CC[N+]([O-])(Cc2ccc(Oc3ncccn3)cc2)CC1 (stereo not drawn) [Compound 763]
- Percent Mortality: 100%
- Percent Growth Inhibition: 100%

Structure (SMILES): O=C(Nc1ccc(F)c(F)c1)OC(c1ccc(C(F)(F)F)cc1)C1CC[N+]([O-])(Cc2ccc(Oc3ncccn3)cc2)CC1 (stereo not drawn) [Compound 764]
- Percent Mortality: 100%
- Percent Growth Inhibition: 100%

Structure (SMILES): O=C(Nc1cc(F)cc(F)c1)OC(c1ccc(C(F)(F)F)cc1)C1CC[N+]([O-])(Cc2ccc(Oc3ncccn3)cc2)CC1 (stereo not drawn) [Compound 765]
- Percent Mortality: 100%
- Percent Growth Inhibition: 100%

Structure (SMILES): O=C(Nc1ccc(Cl)cc1)OC(c1ccc(C(F)(F)F)cc1)C1CC[N+]([O-])(Cc2ccc(Oc3ccc(Cl)nn3)cc2)CC1 (stereo not drawn) [Compound 767]
- Percent Mortality: 100%
- Percent Growth Inhibition: 100%

Structure (SMILES): O=C(Nc1cc(F)cc(F)c1)OC(c1ccc(C(F)(F)F)cc1)C1CC[N+]([O-])(Cc2ccc(Oc3ccc(Cl)nn3)cc2)CC1 (stereo not drawn) [Compound 768]
- Percent Mortality: 100%
- Percent Growth Inhibition: 100%

Structure (SMILES): C=CCOC(c1ccc(C(F)(F)F)cc1)C1CCN(Cc2ccc(Oc3ccccn3)cc2)CC1 (stereo not drawn) [Compound 769]
- Percent Mortality: 0%
- Percent Growth Inhibition: 13%

Structure (SMILES): CC(C)OC(=O)OC(c1ccc(C(F)(F)F)cc1)C1CCN(Cc2ccc(Oc3ccccn3)cc2)CC1 (stereo not drawn) [Compound 770]
- Percent Mortality: 0%
- Percent Growth Inhibition: 76%

Structure (SMILES): CNC(=O)OC(c1ccc(C(F)(F)F)cc1)C1CCN(Cc2ccc(Oc3ccccn3)cc2)CC1 (stereo not drawn) [Compound 771]
- Percent Mortality: 17%
- Percent Growth Inhibition: 72%

Structure (SMILES): CNC(=S)OC(c1ccc(C(F)(F)F)cc1)C1CCN(Cc2ccc(Oc3ccccn3)cc2)CC1 (stereo not drawn) [Compound 772]
- Percent Mortality: 0%
- Percent Growth Inhibition: 78%

Structure (SMILES): CCON=Cc1ccc(CN2CCC(C(OC(=O)N(C)C)c3ccc(C(F)(F)F)cc3)CC2)cc1 (stereo not drawn) [Compound 773]
- Percent Mortality: 100%
- Percent Growth Inhibition: 100%

Structure (SMILES): CCNC(=O)OC(c1ccc(C(F)(F)F)cc1)C1CCN(Cc2ccc(Oc3ccccn3)cc2)CC1 (stereo not drawn) [Compound 774]
- Percent Mortality: 0%
- Percent Growth Inhibition: 98%

Structure (SMILES): CCCNC(=O)OC(c1ccc(C(F)(F)F)cc1)C1CCN(Cc2ccc(Oc3ccccn3)cc2)CC1 (stereo not drawn) [Compound 775]
- Percent Mortality: 33%
- Percent Growth Inhibition: 100%

Structure (SMILES): CC(C)NC(=O)OC(c1ccc(C(F)(F)F)cc1)C1CCN(Cc2ccc(Oc3ccccn3)cc2)CC1 (stereo not drawn) [Compound 776]
- Percent Mortality: 100%
- Percent Growth Inhibition: 100%

Structure (SMILES): CC(C)NC(=S)OC(c1ccc(C(F)(F)F)cc1)C1CCN(Cc2ccc(Oc3ccccn3)cc2)CC1 (stereo not drawn) [Compound 777]
- Percent Mortality: 67%
- Percent Growth Inhibition: 100%
